# ChEMBL document CHEMBL1201862, “PubChem BioAssay data set” (2004)
#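 1) Cells in 96-well plates. 2) Compound, 48 h, 5 concentrations. 3) Linear interpolation between surrounding doses. 4) Unreached endpoint = highest concentration. GI50 = concentration required for 50% inhibition of growth.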 The source made the active and inactive calls. Rule as the data show it: active = GI50 up to about 1.1 µM and inactive = higher.
# Legend:
# Test in all cases: growth of human tumour cells (NCI), 48 h
# [1] = test system: CCRF-CEM
# [2] = test system: T47D
# [3] = test system: OVCAR-8
# [4] = test system: SF-268
# [5] = test system: OVCAR-3
# [6] = test system: SF-539
# [7] = test system: OVCAR-4
# [8] = test system: HCT-15
# [9] = test system: NCI-H226
# [10] = test system: RXF 393
# [11] = test system: HCT-116
# [12] = test system: HL-60
# [13] = test system: IGROV-1
# [14] = test system: Malme-3M
# [15] = test system: MDA-N
# [16] = test system: SF-295
# [17] = test system: TK-10
# [18] = test system: SK-MEL-2
# [19] = test system: HOP-62
Structure (SMILES),GI50 [1],GI50 [2],GI50 [3],GI50 [4],GI50 [5],GI50 [6],GI50 [7],GI50 [8],GI50 [9],GI50 [10],GI50 [11],GI50 [12],GI50 [13],GI50 [14],GI50 [15],GI50 [16],GI50 [17],GI50 [18],GI50 [19]
COc1c(CC=C(C)C)c(O)c(C(CC(C)C)c2c(O)c(C(C)=O)c(O)c3c2OC(C(C)(C)O)C3)c(O)c1C(C)=O (stereo unspecified) [ACROFOLIONE A],5.36 µM (inactive),3.21 µM (inactive),4.12 µM (inactive),5.33 µM (inactive),5.42 µM (inactive),4.93 µM (inactive),5.68 µM (inactive),3.86 µM,5.69 µM (inactive),2.88 µM (inactive),3.68 µM (inactive),1.97 µM (inactive),3.65 µM (inactive),3.81 µM (inactive),4.29 µM (inactive),–,–,–,–
CC(=O)NCCCCNCCCNC(C)=O,> 100 µM (inactive),> 100 µM (inactive),> 100 µM (inactive),> 100 µM (inactive),–,> 100 µM (inactive),> 100 µM (inactive),> 100 µM,> 100 µM (inactive),> 100 µM (inactive),> 100 µM (inactive),> 100 µM (inactive),> 100 µM (inactive),> 100 µM (inactive),> 100 µM (inactive),> 100 µM (inactive),> 100 µM (inactive),–,–
CC(=O)Nn1c(=S)[nH]c2ccccc21,> 100 µM (inactive),> 100 µM (inactive),> 100 µM (inactive),> 100 µM (inactive),–,–,> 100 µM (inactive),> 100 µM,> 100 µM (inactive),> 100 µM (inactive),> 100 µM (inactive),> 100 µM (inactive),> 100 µM (inactive),> 100 µM (inactive),> 100 µM (inactive),> 100 µM (inactive),> 100 µM (inactive),> 100 µM (inactive),> 100 µM (inactive)
COC(=O)[C@H](Cc1ccccc1)NP(=O)(OCCC#N)OCC1OC(n2cc(C)c(=O)[nH]c2=O)CC1N=[N+]=[N-] (stereo partly specified),> 100 µM (inactive),> 100 µM (inactive),> 100 µM (inactive),> 100 µM (inactive),–,–,> 100 µM (inactive),> 100 µM,> 100 µM (inactive),> 100 µM (inactive),> 100 µM (inactive),> 100 µM (inactive),> 100 µM (inactive),> 100 µM (inactive),> 100 µM (inactive),> 100 µM (inactive),> 100 µM (inactive),> 100 µM (inactive),> 100 µM (inactive)
COc1cc(C2c3cccc4cccc(c34)C3CCC(=O)N32)cc(O)c1O (stereo unspecified),10.9 µM (inactive),29.9 µM (inactive),27.9 µM (inactive),–,18.1 µM (inactive),20.9 µM (inactive),12.7 µM (inactive),23.7 µM,> 50 µM (inactive),> 50 µM (inactive),20.7 µM (inactive),14.6 µM (inactive),26.9 µM (inactive),–,22.3 µM (inactive),39.9 µM (inactive),–,> 50 µM (inactive),47.1 µM (inactive)
COC(=O)C1CCC(=O)N1C(c1ccc2c(c1)OCO2)c1ccc2c(c1)OCO2 (stereo unspecified),> 100 µM (inactive),> 100 µM (inactive),> 100 µM (inactive),> 100 µM (inactive),> 100 µM (inactive),> 100 µM (inactive),> 100 µM (inactive),> 100 µM,> 100 µM (inactive),–,> 100 µM (inactive),> 100 µM (inactive),> 100 µM (inactive),> 100 µM (inactive),> 100 µM (inactive),> 100 µM (inactive),> 100 µM (inactive),> 100 µM (inactive),> 100 µM (inactive)
Cc1onc(-c2c(F)cccc2Cl)c1C(=O)N[C@@H]1C(=O)N2[C@@H]1SC(C)(C)[C@@H]2C(=O)O,–,> 100 µM (inactive),> 100 µM (inactive),> 100 µM (inactive),> 100 µM (inactive),> 100 µM (inactive),> 100 µM (inactive),> 100 µM,> 100 µM (inactive),> 100 µM (inactive),> 100 µM (inactive),–,> 100 µM (inactive),> 100 µM (inactive),> 100 µM (inactive),> 100 µM (inactive),> 100 µM (inactive),> 100 µM (inactive),> 100 µM (inactive)
C(=N\CCCN1CCN(CCC/N=C/c2cccc3ccccc23)CC1)/c1cccc2ccccc12,52.7 µM (inactive),> 100 µM (inactive),> 100 µM (inactive),> 100 µM (inactive),> 100 µM (inactive),> 100 µM (inactive),> 100 µM (inactive),34.8 µM,48.6 µM (inactive),10.8 µM (inactive),27.7 µM (inactive),–,> 100 µM (inactive),> 100 µM (inactive),20 µM (inactive),57.9 µM (inactive),72.1 µM (inactive),> 100 µM (inactive),> 100 µM (inactive)
CCOc1ccccc1N1CSc2nnc(-c3ccccc3)n2C1,20 µM (inactive),> 100 µM (inactive),> 100 µM (inactive),> 100 µM (inactive),> 100 µM (inactive),> 100 µM (inactive),> 100 µM (inactive),> 100 µM,> 100 µM (inactive),> 100 µM (inactive),53.8 µM (inactive),–,> 100 µM (inactive),> 100 µM (inactive),> 100 µM (inactive),> 100 µM (inactive),> 100 µM (inactive),> 100 µM (inactive),> 100 µM (inactive)
CC(=O)O[C@H]1CC[C@@]2(C)C(=CC[C@H]3[C@@H]4C/C(=C\c5ccc(N(C)C)cc5)[C@H](OC(C)=O)[C@@]4(C)CC[C@@H]32)C1,–,5.56 µM (inactive),11.3 µM (inactive),12.7 µM (inactive),8.93 µM (inactive),10.7 µM (inactive),14.7 µM (inactive),6.27 µM,12.1 µM (inactive),9.91 µM (inactive),6.37 µM (inactive),11.5 µM (inactive),13.8 µM (inactive),12.6 µM (inactive),13.5 µM (inactive),4.12 µM (inactive),15.6 µM (inactive),8.53 µM (inactive),14.1 µM (inactive)
CCc1c(CN)c(CC)c(CNC2=NCCN2)c(CC)c1CNC1=NCCN1,> 100 µM (inactive),> 100 µM (inactive),> 100 µM (inactive),> 100 µM (inactive),> 100 µM (inactive),> 100 µM (inactive),> 100 µM (inactive),> 100 µM,> 100 µM (inactive),> 100 µM (inactive),> 100 µM (inactive),–,> 100 µM (inactive),> 100 µM (inactive),> 100 µM (inactive),> 100 µM (inactive),> 100 µM (inactive),> 100 µM (inactive),> 100 µM (inactive)
O=c1c(-c2ccccc2)c(SCCN2CCCC2)n(-c2ccccc2)c(=S)n1-c1ccccc1,> 100 µM (inactive),> 100 µM (inactive),> 100 µM (inactive),> 100 µM (inactive),–,> 100 µM (inactive),> 100 µM (inactive),> 100 µM,83.2 µM (inactive),> 100 µM (inactive),> 100 µM (inactive),> 100 µM (inactive),> 100 µM (inactive),> 100 µM (inactive),> 100 µM (inactive),> 100 µM (inactive),> 100 µM (inactive),> 100 µM (inactive),> 100 µM (inactive)
O=C1NC(=S)N/C1=C\c1cc2c(=O)c3ccccc3sc2s1,–,> 100 µM (inactive),57.5 µM (inactive),> 100 µM (inactive),54.1 µM (inactive),–,76 µM (inactive),> 100 µM,> 100 µM (inactive),68.1 µM (inactive),36.4 µM (inactive),36.5 µM (inactive),40.7 µM (inactive),> 100 µM (inactive),87.7 µM (inactive),70.5 µM (inactive),97.7 µM (inactive),> 100 µM (inactive),32.5 µM (inactive)
Cn1cc(NC(=O)Nc2cc(C(=O)Nc3cc(C(=O)Nc4ccc(S(=O)(=O)O)c5cc(S(=O)(=O)O)ccc45)n(C)c3)n(C)c2)cc1C(=O)Nc1cc(C(=O)Nc2ccc(S(=O)(=O)O)c3cc(S(=O)(=O)O)ccc23)n(C)c1,> 100 µM (inactive),> 100 µM (inactive),> 100 µM (inactive),> 100 µM (inactive),> 100 µM (inactive),> 100 µM (inactive),> 100 µM (inactive),> 100 µM,> 100 µM (inactive),> 100 µM (inactive),> 100 µM (inactive),> 100 µM (inactive),> 100 µM (inactive),> 100 µM (inactive),> 100 µM (inactive),> 100 µM (inactive),83.8 µM (inactive),–,> 100 µM (inactive)
CN(C(=O)CC(=O)CP(=O)(c1ccccc1)c1ccccc1)c1ccccc1,> 100 µM (inactive),> 100 µM (inactive),> 100 µM (inactive),> 100 µM (inactive),> 100 µM (inactive),> 100 µM (inactive),> 100 µM (inactive),> 100 µM,> 100 µM (inactive),> 100 µM (inactive),> 100 µM (inactive),> 100 µM (inactive),> 100 µM (inactive),–,> 100 µM (inactive),> 100 µM (inactive),> 100 µM (inactive),–,> 100 µM (inactive)
NC(=O)Cc1ncn(-c2ccccc2)n1,> 100 µM (inactive),> 100 µM (inactive),> 100 µM (inactive),> 100 µM (inactive),> 100 µM (inactive),> 100 µM (inactive),–,> 100 µM,> 100 µM (inactive),> 100 µM (inactive),> 100 µM (inactive),> 100 µM (inactive),> 100 µM (inactive),> 100 µM (inactive),> 100 µM (inactive),> 100 µM (inactive),> 100 µM (inactive),> 100 µM (inactive),> 100 µM (inactive)
